Results reported in PubChem BioAssay (NCI).
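Five compound concentrations were applied to cells in 96-well plates for 48 hours; endpoints were derived by simple linear interpolation of the resulting dose-response curve. At the TGI there is no net growth.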

What was measured:
Experiment in all cases: inhibition of tumour cell growth, NCI panel, 48 h
786-0 renal = system: 786-0 renal
A498 renal = system: A498 renal
A549 NSCLC = system: A549 NSCLC
ACHN renal = system: ACHN renal
CAKI-1 renal = system: CAKI-1 renal
CCRF-CEM leukemia = system: CCRF-CEM leukemia
COLO 205 colon = system: COLO 205 colon
DLD-1 colon = system: DLD-1 colon
DMS 114 small cell lung = system: DMS 114 small cell lung
DMS 273 small cell lung = system: DMS 273 small cell lung
EKVX NSCLC = system: EKVX NSCLC
HCC-2998 colon = system: HCC-2998 colon
HCT-116 colon = system: HCT-116 colon
HCT-15 colon = system: HCT-15 colon
HL-60(TB) leukemia = system: HL-60(TB) leukemia
HOP-18 NSCLC = system: HOP-18 NSCLC
HOP-62 NSCLC = system: HOP-62 NSCLC
HOP-92 NSCLC = system: HOP-92 NSCLC
HT29 colon = system: HT29 colon
IGROV1 ovarian = system: IGROV1 ovarian
K-562 leukemia = system: K-562 leukemia
KM12 colon = system: KM12 colon
KM20L2 colon = system: KM20L2 colon
LOX IMVI melanoma = system: LOX IMVI melanoma
LXFL 529 NSCLC = system: LXFL 529 NSCLC
M14 melanoma = system: M14 melanoma
M19-MEL melanoma = system: M19-MEL melanoma
MALME-3M melanoma = system: MALME-3M melanoma
MOLT-4 leukemia = system: MOLT-4 leukemia
NCI-H226 lung = system: NCI-H226 lung
NCI-H23 lung = system: NCI-H23 lung
NCI-H460 lung = system: NCI-H460 lung
OVCAR-3 ovarian = system: OVCAR-3 ovarian
OVCAR-4 ovarian = system: OVCAR-4 ovarian
OVCAR-5 ovarian = system: OVCAR-5 ovarian
OVCAR-8 ovarian = system: OVCAR-8 ovarian
RPMI-8226 leukemia = system: RPMI-8226 leukemia
RXF 393 renal = system: RXF 393 renal
RXF-631 renal = system: RXF-631 renal
SF-295 CNS = system: SF-295 CNS
SF-539 CNS = system: SF-539 CNS
SK-MEL-2 melanoma = system: SK-MEL-2 melanoma
SK-MEL-28 melanoma = system: SK-MEL-28 melanoma
SK-MEL-5 melanoma = system: SK-MEL-5 melanoma
SK-OV-3 ovarian = system: SK-OV-3 ovarian
SN12C renal = system: SN12C renal
SNB-19 CNS = system: SNB-19 CNS
SNB-75 CNS = system: SNB-75 CNS
SNB-78 CNS = system: SNB-78 CNS
SR leukemia = system: SR leukemia
SW-620 colon = system: SW-620 colon
TK-10 renal = system: TK-10 renal
U251 CNS = system: U251 CNS
UACC-257 melanoma = system: UACC-257 melanoma
UACC-62 melanoma = system: UACC-62 melanoma
UO-31 renal = system: UO-31 renal
XF 498 CNS = system: XF 498 CNS
SF-268 CNS = system: SF-268 CNS

COc1c(I)c(OC)c2c(c1I)O[C@@H]1OCC[C@H]21
TGI (786-0 renal): > 100 µM
TGI (A498 renal): 86 µM
TGI (A549 NSCLC): > 100 µM
TGI (ACHN renal): > 100 µM
TGI (CAKI-1 renal): 46.1 µM
TGI (CCRF-CEM leukemia): > 100 µM
TGI (COLO 205 colon): 57.8 µM
TGI (DLD-1 colon): > 100 µM
TGI (DMS 114 small cell lung): 70.5 µM
TGI (DMS 273 small cell lung): 56.5 µM
TGI (EKVX NSCLC): > 100 µM
TGI (HCC-2998 colon): 78.6 µM
TGI (HCT-116 colon): > 100 µM
TGI (HCT-15 colon): > 100 µM
TGI (HL-60(TB) leukemia): 55.6 µM
TGI (HOP-18 NSCLC): 81 µM
TGI (HOP-62 NSCLC): > 100 µM
TGI (HOP-92 NSCLC): 67.1 µM
TGI (HT29 colon): > 100 µM
TGI (IGROV1 ovarian): > 100 µM
TGI (K-562 leukemia): > 100 µM
TGI (KM12 colon): 82.6 µM
TGI (KM20L2 colon): > 100 µM
TGI (LOX IMVI melanoma): > 100 µM
TGI (LXFL 529 NSCLC): 63.7 µM
TGI (M14 melanoma): 50.5 µM
TGI (M19-MEL melanoma): 57.7 µM
TGI (MALME-3M melanoma): 73.4 µM
TGI (MOLT-4 leukemia): 54.4 µM
TGI (NCI-H226 lung): > 100 µM
TGI (NCI-H23 lung): > 100 µM
TGI (NCI-H460 lung): 56.2 µM
TGI (OVCAR-3 ovarian): 91.7 µM
TGI (OVCAR-4 ovarian): 84.6 µM
TGI (OVCAR-5 ovarian): > 100 µM
TGI (OVCAR-8 ovarian): > 100 µM
TGI (RPMI-8226 leukemia): > 100 µM
TGI (RXF 393 renal): 72.4 µM
TGI (RXF-631 renal): > 100 µM
TGI (SF-295 CNS): > 100 µM
TGI (SF-539 CNS): > 100 µM
TGI (SK-MEL-2 melanoma): 41.2 µM
TGI (SK-MEL-28 melanoma): 97 µM
TGI (SK-MEL-5 melanoma): 27.2 µM
TGI (SK-OV-3 ovarian): > 100 µM
TGI (SN12C renal): > 100 µM
TGI (SNB-19 CNS): > 100 µM
TGI (SNB-75 CNS): 82.9 µM
TGI (SNB-78 CNS): > 100 µM
TGI (SR leukemia): 45.2 µM
TGI (SW-620 colon): > 100 µM
TGI (TK-10 renal): > 100 µM
TGI (U251 CNS): > 100 µM
TGI (UACC-257 melanoma): 67.1 µM
TGI (UACC-62 melanoma): > 100 µM
TGI (UO-31 renal): 66.3 µM
TGI (XF 498 CNS): 66.4 µM

Cn1c(=O)cc2[nH]c3ccccc3n2c1=O
TGI (786-0 renal): 62.9 µM
TGI (A498 renal): > 100 µM
TGI (A549 NSCLC): > 100 µM
TGI (ACHN renal): > 100 µM
TGI (CAKI-1 renal): > 100 µM
TGI (CCRF-CEM leukemia): > 100 µM
TGI (COLO 205 colon): 29.9 µM
TGI (DLD-1 colon): > 100 µM
TGI (DMS 114 small cell lung): > 100 µM
TGI (DMS 273 small cell lung): 45.3 µM
TGI (EKVX NSCLC): > 100 µM
TGI (HCC-2998 colon): > 100 µM
TGI (HCT-15 colon): > 100 µM
TGI (HL-60(TB) leukemia): > 100 µM
TGI (HOP-18 NSCLC): > 100 µM
TGI (HOP-62 NSCLC): > 100 µM
TGI (HOP-92 NSCLC): > 100 µM
TGI (HT29 colon): > 100 µM
TGI (IGROV1 ovarian): > 100 µM
TGI (K-562 leukemia): > 100 µM
TGI (KM12 colon): > 100 µM
TGI (KM20L2 colon): > 100 µM
TGI (LOX IMVI melanoma): 38.4 µM
TGI (LXFL 529 NSCLC): > 100 µM
TGI (M14 melanoma): > 100 µM
TGI (M19-MEL melanoma): > 100 µM
TGI (MALME-3M melanoma): > 100 µM
TGI (MOLT-4 leukemia): > 100 µM
TGI (NCI-H226 lung): > 100 µM
TGI (NCI-H23 lung): > 100 µM
TGI (NCI-H460 lung): > 100 µM
TGI (OVCAR-3 ovarian): > 100 µM
TGI (OVCAR-4 ovarian): > 100 µM
TGI (OVCAR-5 ovarian): > 100 µM
TGI (OVCAR-8 ovarian): > 100 µM
TGI (RPMI-8226 leukemia): > 100 µM
TGI (RXF 393 renal): 64.2 µM
TGI (RXF-631 renal): 86.5 µM
TGI (SF-268 CNS): > 100 µM
TGI (SF-295 CNS): > 100 µM
TGI (SF-539 CNS): 46.3 µM
TGI (SK-MEL-2 melanoma): > 100 µM
TGI (SK-MEL-28 melanoma): > 100 µM
TGI (SK-MEL-5 melanoma): > 100 µM
TGI (SK-OV-3 ovarian): > 100 µM
TGI (SNB-19 CNS): > 100 µM
TGI (SNB-75 CNS): > 100 µM
TGI (SNB-78 CNS): > 100 µM
TGI (SR leukemia): > 100 µM
TGI (SW-620 colon): 61.3 µM
TGI (TK-10 renal): > 100 µM
TGI (U251 CNS): 31.2 µM
TGI (UACC-257 melanoma): > 100 µM
TGI (UACC-62 melanoma): > 100 µM
TGI (UO-31 renal): > 100 µM
